Values of other authors, collected in US7329659B2, “Substituted-1-phthalazinamines as vr-1 antagonists” (Merck Sharp & Dohme Limited, priority 2003, dated 2008).

Molecular target: VR1 (Rattus norvegicus, UniProt O35433)
Settings: Wahl et al., Mol. Pharmacol., 59:9, 2001

Sequence of VR1 (O35433 whole entry): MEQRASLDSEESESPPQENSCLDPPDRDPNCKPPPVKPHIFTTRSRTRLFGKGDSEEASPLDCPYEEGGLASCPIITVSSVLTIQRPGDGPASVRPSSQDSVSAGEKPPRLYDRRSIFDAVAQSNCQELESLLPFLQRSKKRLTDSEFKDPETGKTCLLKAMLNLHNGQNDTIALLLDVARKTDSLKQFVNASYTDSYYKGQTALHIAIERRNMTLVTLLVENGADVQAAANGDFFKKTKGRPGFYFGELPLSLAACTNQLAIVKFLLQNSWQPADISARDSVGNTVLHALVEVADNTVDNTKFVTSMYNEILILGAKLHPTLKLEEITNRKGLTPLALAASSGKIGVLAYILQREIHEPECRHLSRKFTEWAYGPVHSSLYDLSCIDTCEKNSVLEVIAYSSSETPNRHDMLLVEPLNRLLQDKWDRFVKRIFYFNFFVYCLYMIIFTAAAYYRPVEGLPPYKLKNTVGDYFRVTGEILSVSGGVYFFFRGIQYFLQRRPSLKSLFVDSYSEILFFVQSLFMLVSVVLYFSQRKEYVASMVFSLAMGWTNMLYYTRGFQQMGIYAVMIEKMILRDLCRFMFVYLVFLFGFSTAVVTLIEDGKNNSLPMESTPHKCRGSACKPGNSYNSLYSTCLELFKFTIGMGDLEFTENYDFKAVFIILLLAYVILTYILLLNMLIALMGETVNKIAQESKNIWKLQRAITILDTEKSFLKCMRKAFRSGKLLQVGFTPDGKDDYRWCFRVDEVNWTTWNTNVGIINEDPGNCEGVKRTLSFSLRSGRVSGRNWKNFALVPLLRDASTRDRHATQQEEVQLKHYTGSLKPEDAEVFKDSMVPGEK

**Q.** Which “VR1 antagonist potency (in words)” value does the source give for `C=C(C)[C@]12C[C@@H](C)[C@@]34O[C@](Cc5ccccc5)(O[C@@H]1[C@@H]3C=C(COC(=O)Cc1cc(I)c(O)c(OC)c1)C[C@]1(O)C(=O)C(C)=C[C@@H]41)O2` [Iodo-resiniferatoxin] here?
**A.** The value was “nanomolar antagonist of VR1”.
